From patent US8187822B2, “Methods to identify modulators” (Givaudan S.A., priority 2007, dated 2012)
One block for each compound: values may come before it.

Experiments:
TAS2R16 = target: T1, TAS2R16 (Homo sapiens, UniProt Q9NYV7); assay: Fluo-4 calcium assay, cells expressing TAS2R16 (control of antagonist specificity); type: cell-based; conditions: for P-β-G + test cpd A ΔF/F0: 25 μM test cpd A
T1 construct: The full length gene of human TAS2R44 was amplified by polymerase chain reaction (PCR) using gene-specific primers that span the entire coding region; RSS tag (first 45 amino acids of rat somatostatin receptor subtype 3) (N); expressed in transfected cells; host or cells: HEK293T cells expressing Gα16-gustducin44
T1 sequence (Q9NYV7 1-291): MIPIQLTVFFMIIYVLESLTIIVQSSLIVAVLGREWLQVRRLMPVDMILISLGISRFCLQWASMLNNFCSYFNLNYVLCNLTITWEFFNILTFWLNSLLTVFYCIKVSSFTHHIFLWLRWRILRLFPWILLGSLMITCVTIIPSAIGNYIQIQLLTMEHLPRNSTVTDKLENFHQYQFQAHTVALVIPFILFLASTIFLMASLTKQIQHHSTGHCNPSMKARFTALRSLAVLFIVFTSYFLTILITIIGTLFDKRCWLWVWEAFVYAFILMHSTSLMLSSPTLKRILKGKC
Experimental: At day 0, the HEK293T cell line expressing Gα16-gustducin44 and a TAS2R bitter taste receptor formed as described in examples 2b or 2c was seeded in antibiotic-free growth medium (standard DMEM with 10% (v/v) heat-inactivated fetal bovine serum, 2 mM L-glutamine[…]) into black wall/clear bottom 96-well plates, coated with poly(ethylenimine) (0.005% v/v) at a concentration of 15,000 cells per well and incubated for 48 hours in humidified atmosphere (37° C., 5% CO2).
At the time of the assay, the growth medium was discarded and the cells were in humidified atmosphere (37° C., 5% CO2) for 1 hour with 50 μl of loading buffer consisting of 1.5 μM Fluo-4 AM and […] probenicid (Sigma-Aldrich, St. Louis, Mo., US) in DMEM.
Afterwards, the 96-well plate was washed 5 times with 100 μl of assay buffer (130 mM NaCl, 5 mM KCl, 10 mM HEPES, 2 mM CaCl2, and 5 mM dextrose, pH 7.4) per well, using an automated plate washer (BioTek). The plate was further incubated for 30 minutes at room temperature in the dark to allow for complete de-esterification of the Fluo-4. Afterwards the plate was washed 5 times with 100 μl of assay buffer per well, and reconstituted with 100 μl of assay buffer per well.
For assay reading, the plate was placed in a Fluorometric Imaging Plate Reader (FLIPR) (FLIPR-TETRA™, Molecular Devices, Sunnyvale, Calif., US), and receptor activation was initiated by addition of 100 μl of a twofold concentrated agonist stock solution (to give the desired agonist end concentration when added to the 100 microliter assay buffer volume), which was prepared in assay buffer.
Fluorescence was continuously monitored for 20 seconds to give a signal baseline (averaged to give F0) prior to agonist addition and for 120 seconds after agonist addition. The change in signal divided by F0 gives ΔF/F0 indicated in the table, with ΔF being the maximum signal occurring within the 120 seconds minus the minimum signal (occurring within the 120 seconds after agonist addition.
All data was collected from at least two independent experiments each carried out in triplicate.
A concentration-response analysis was performed and EC50 values were calculated by nonlinear regression using the function f(x)=(a−d)/(1+(x/C)^nh)+d; with a=minimum signal, d=maximum signal, nh=hill coefficient, C=EC50, and x=agonist concentration. EC50 is the molar concentration of an agonist which produces 50% of the maximum possible effective response for that agonist.
The obtained calcium signals were corrected for the response of cells expressing only the G Protein α subunit (Gα16-gustducin44) and normalized to the fluorescence of cells prior to the stimulus using ΔF/F0 (Fmax−Fmin/F0).
All cells were HEK293T cells stably expressing Gα16-gustducin44, or expressing Gα16-gustducin44 and a TAS2R receptor (TAS2R44, TAS2R16).
The method was carried out as described in example 3 subject to the following modifications: The samples were tested with and without test compound A (test cpd A) and the signals were compared. The test compound was dissolved in dimethylsulfoxide (DMSO), and a negative control with equivalent DMSO concentration (0.02%) was performed accordingly to exclude a potential inhibitory effect of the solvent.
As a control of antagonist specificity, the response of an unrelated bitter taste receptor (TAS2R16) to its agonist phenyl-β-glucopyranosides is also detected (see results in table 8 herein below).

[1] = system: bitter-sensitive panelists; assay: Sensory evaluation of bitter blocking in sucralose solution (forced choice); type: in vivo, human; conditions: for perceived bitterness of sucralose, in words: 13 ppm in 3 mM sucralose solution
Experimental: The bitter blocking capability of test cpd A (13 ppm) in sucralose (3 mM) solution was evaluated. Twenty ml of each solution (sucralose or sucralose with test cpd A) was presented in random order to 15 bitter-sensitive panelists. In two replications, panelists were asked to select the solution they perceived as more bitter. A beta-binomial analysis was calculated from the forced-choice data to correct for overdispersion. Because panelists evaluated bitterness over 2 replications, the data was subjected to a beta-binomial d′ analysis to determine whether over-dispersion occurred. Not accounting for over-dispersion has the potential to underestimate the significance level at which a test is conducted and therefore lead to false-positive results. The analysis refuted overdispersion (gamma=0.00; p=0.109) and no adjustments were necessary.

TAS2R10 = target: T2, TAS2R10 (Homo sapiens, UniProt Q9NYW0); assay: Fluo-4 calcium assay, HEK293T cells stably expressing Gα16-gustducin44 and TAS2R10; type: cell-based
T2 construct: The full length gene of human TAS2R44 was amplified by polymerase chain reaction (PCR) using gene-specific primers that span the entire coding region; RSS tag (first 45 amino acids of rat somatostatin receptor subtype 3) (N); expressed in transfected cells
T2 sequence (Q9NYW0 1-307): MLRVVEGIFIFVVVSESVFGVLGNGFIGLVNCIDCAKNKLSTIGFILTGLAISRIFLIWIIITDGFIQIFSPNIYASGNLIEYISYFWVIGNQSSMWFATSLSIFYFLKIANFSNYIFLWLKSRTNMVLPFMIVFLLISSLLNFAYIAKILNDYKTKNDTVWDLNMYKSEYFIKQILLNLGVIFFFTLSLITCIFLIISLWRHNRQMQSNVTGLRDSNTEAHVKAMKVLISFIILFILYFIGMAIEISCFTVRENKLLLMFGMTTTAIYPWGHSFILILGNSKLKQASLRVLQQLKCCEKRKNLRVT

P-β-G + test cpd A ΔF/F0 (TAS2R16; P-β-G 0.0391 mM): −0.013 | P-β-G + test cpd A ΔF/F0 (TAS2R16; P-β-G 0.0781 mM): 0.108 | P-β-G + test cpd A ΔF/F0 (TAS2R16; P-β-G 0.1563 mM): 0.702 | P-β-G + test cpd A ΔF/F0 (TAS2R16; P-β-G 0.3125 mM): 1.548 | P-β-G + test cpd A ΔF/F0 (TAS2R16; P-β-G 0.6250 mM): 2.139 | P-β-G + test cpd A ΔF/F0 (TAS2R16; P-β-G 1.2500 mM): 2.367 | P-β-G + test cpd A ΔF/F0 (TAS2R16; P-β-G 2.5000 mM): 2.480 | P-β-G + test cpd A ΔF/F0 (TAS2R16; P-β-G 5.0000 mM): 2.646 | P-β-G + test cpd A ΔF/F0 (TAS2R16; P-β-G 10.0000 mM): 2.830 | effect on the response of TAS2R16 to phenyl-β-glucopyranoside, in words (TAS2R16; test compound at 25 μM): does not block the response
Compound: CC1=CCC(C/C=C/C(=O)O)C1(C)C (stereo not drawn) [test cpd A, (E)-4-(2,2,3-trimethylcyclopent-3-enyl)but-2-enoic acid]
perceived bitterness of sucralose, in words [1]: reduced the perceived bitterness | perceived bitterness of sucralose, in words ([1]; listed as (E)-4-(2,2,3-trimethylcyclopent-3-enyl)but-2-enoic acid): significantly reduce the bitter aftertaste of sucralose | evaluations selecting the solution with test compound as less bitter than 3 mM sucralose solution ([1]; 13 ppm in 3 mM sucralose, 15 panelists, 2 replications, p<0.05): 22 of 30 | d′ ([1]; 13 ppm in 3 mM sucralose, forced choice): 0.88±0.12

TAS2R10 ΔF/F0 (TAS2R10; sucralose 0.3906 mM): 0.050 | TAS2R10 ΔF/F0 (TAS2R10; sucralose 0.7813 mM): 0.050 | TAS2R10 ΔF/F0 (TAS2R10; sucralose 1.5625 mM): 0.047 | TAS2R10 ΔF/F0 (TAS2R10; sucralose 3.1250 mM): 0.053 | TAS2R10 ΔF/F0 (TAS2R10; sucralose 6.2500 mM): 0.053 | TAS2R10 ΔF/F0 (TAS2R10; sucralose 12.5000 mM): 0.059 | TAS2R10 ΔF/F0 (TAS2R10; sucralose 25.0000 mM): 0.087 | TAS2R10 ΔF/F0 (TAS2R10; sucralose 50.0000 mM): 0.212 | TAS2R10 ΔF/F0 (TAS2R10; sucralose 100.0000 mM): 0.437
Compound: OC[C@H]1O[C@H](O[C@]2(CCl)O[C@H](CCl)[C@@H](O)[C@@H]2O)[C@H](O)[C@@H](O)[C@H]1Cl [Sucralose, sucralose]
calcium signaling in TAS2R10 cells, in words (TAS2R10): significant concentration-dependent increase in calcium signaling
